Like-named read-outs stand apart in the source and are kept apart here. Square brackets hold non-standard residues; d marks the D form. Ends that are not written are not given here. Peptide text beside a SMILES is read from it.
Columns and labels:
[1] = LPS binding affinity by Isothermal Titration Calorimeter (ITC); design: species or system E. coli K1; conditions: for LPS binding affinity (in words): compared with FP1 (wild type, WT); for Kd: peptide binding to LPS, read-out: Kd (calculated by ITC)
Excerpt: FPT (ADK 44-54) is denoted by wild type (WT), and peptides in which a point mutation occurred at various sites in WT were manufactured (FP3, FP5, FP6, and FP9). To increase the interaction with LPS in a residue sequence of FP3, peptides were designed based on FP3- and LPS-binding models (FP12-NH2 and FP13-NH2), and peptides were designed by additionally introducing a non-natural amino acid and an amino acid isomer (allomeric D-type amino acid) (allD FP12-NH2, allD FP13-NH2, allD FP-13-9a, allD FP-13-9w, allD FP-13-9k, and allD FP13-NH2 (AcOH)). In addition, an N-terminus PEGylated peptide (PEG-alld FP13-NH2 (AcOH)) was additionally designed, synthesized, and provided by ANYGEN, Co. Ltd. The binding affinity between each of the provided peptides and lipopolysaccharide (LPS) was confirmed through measuring the binding affinity (Kd) using Isothermal Titration Calorimeter (ITC).
Specifically, a method of analyzing binding affinity (Kd) between a peptide and LPS is as follows.
Measurement was carried out using a Malvern MicroCal PEAQ-ITC cell instrument, and the following pretreatment was carried out to confirm interaction with LPS. The amount and morphology of a sample cell are 300 μL and coin-shaped, fixed-in-place, respectively; a syringe rotation rate was 1,200 rpm; and a temperature was 30° C., 35° C. or 25° C.
Before the experiment, LPS and the peptide were previously diluted with PBS, thereby preparing 2 mM LPS and 0.2 mM peptide. 300 μL of the peptide was added into cells in the ITC instrument, which had been washed, and 40 μL of LPS was put into a syringe. After measurement conditions for ITC (temperature, number of injections) were set, the syringe was inserted into the cell, and ITC measurement was started. When the measurement was completed, analysis is performed, and the Kd values of LPS and the peptide were calculated.

[2] = system: Carbapenem resistant (CR)-Acinetobactor baumannii; assay: organism not typed
Method: (§1) The antibacterial activity was evaluated according to an antibacterial activity test method for measuring the minimum inhibitory concentration 50 (MIC50; the minimal concentration that kills 50% of bacteria).
(§2) More specifically, 100 μL of a medium was dispensed into each well of a 96-well plate, and in the first column, an antibiotic and a peptide in 200 μL of the medium were dispensed. 1/2 serial dilution was performed from columns 1 to 11 and five types of antibiotic-resistant bacteria (ESBL-resistant E. coli, carbapenem-resistant A. baumannii, carbapenem-resistant Klebsiella pneumoniae, carbapenem-resistant Pseudomonas aeruginosa, colistin-resistant Acinetobactor baumannii), which had been previously cultured, were diluted (OD600 nm value in dilution: approximately 0.0025) and dispensed into each well. The plate was incubated in a 37° C. incubator for 4 hours, and measured at OD600 nm.

CR-Klebsiella pneumoniae = system: CR-Klebsiella pneumoniae
Method: as §1, §2

ESBL (E. coli) = system: ESBL (E. coli)
Method: as §1, §2

[3] = system: Colistin resistant AB (Acinetobactor baumannii)
Method: as §1, §2

[4] = system: Acinetobacter baumannii (ATCC 19606); assay: microbe, parasite or virus in culture; conditions: for MIC: Acinetobacter baumannii
Method: (§3) To compare the antibacterial activity between the four commercially available antibiotics (ampicillin, gentamicin, levofloxacin and imipenem) and the allD FP13-NH2 (AcOH) peptide, an antibacterial activity test was performed to measure the minimum inhibitory concentrations (MIC50 and MIC80) for gram-negative and gram-positive standard strains (Escherichia coli DH5α, Escherichia coli K1, Acinetobacter baumannii, Pseudomonas aeruginosa, Salmonella enteritidis, Salmonella typhimurium, and Klebsiella pneumoniae).
(§4) More specifically, 100 μL of a medium was dispensed into each well of a 96-well plate, and in the first column, an antibiotic and a peptide in 200 μL of the medium were dispensed. 1/2 serial dilution was performed from columns 1 to 11, and gram-negative and gram-positive bacteria which had been previously cultured were diluted (OD600 nm value in dilution: approximately 0.0025) and dispensed into each well. The plate was incubated in a 37° C. incubator for 4 hours, and measured at OD600 nm.

[5] = system: Pseudomanas aeruginosa PAO1 (ATCC 47085D-5); assay: microbe, parasite or virus in culture; conditions: for MIC (μg/ml) 50% / MIC (μg/ml) 80%: Pseudomonas aeruginosa PAO1; for MIC (μg/ml) 50%: 50% growth inhibition; for MIC (μg/ml) 80%: 80% growth inhibition; for MIC: Pseudomonas aeruginosa
Method: as §3, §4

[6] = system: Escherichia coli DH5α (ATCC PTA-4750); assay: microbe, parasite or virus in culture; conditions: for MIC: Escherichia coli, 4 h
Method: as §3, §4

Escherichia coli K1 = assay: microbe, parasite or virus in culture; conditions: for MIC: Escherichia coli
Method: as §3, §4

[7] = system: Salmonela enteritidis (ATCC 13076); assay: microbe, parasite or virus in culture; conditions: for MIC: Salmonella enterica
Method: as §3, §4

[8] = system: Klebiella pneumoniae (ATCC 13883); assay: microbe, parasite or virus in culture; conditions: for MIC (μg/ml) 50% / MIC (μg/ml) 80%: Klebsiella pneumoniae ATCC 13883; for MIC (μg/ml) 50%: 50% growth inhibition; for MIC (μg/ml) 80%: 80% growth inhibition; for MIC: Klebsiella pneumoniae
Method: as §3, §4

[9] = system: Salmonela typhimurium (ATCC 53648); assay: microbe, parasite or virus in culture; conditions: for MIC: Salmonella enterica
Method: as §3, §4

[10] = colistin resistant A. baumannii
[11] = ATCC19606, read-out: MIC (μg/ml) 50%
[12] = ATCC19606, read-out: MIC (μg/ml) 80%

## LRLGVEAKRYLR [FP5]
[1]
  LPS binding affinity (in words): strong LPS binding affinity
  Kd: 854 µM

## LRLGVELKRYLR [FP6]
[1]
  LPS binding affinity (in words): strong LPS binding affinity
  Kd: 11.1 µM

## RLRVKLRRYLR [FP12]
[2]
  MIC50, Carbapenem resistant (CR)-Acinetobactor baumannii: <16 µg/mL
CR-Klebsiella pneumoniae; CR-
  MIC50, CR-Klebsiella pneumoniae: <62 µg/mL
ESBL (E. coli); ESBL
  MIC50, ESBL (E. coli): <2 µg/mL
[3]
  MIC50, Colistin resistant AB: <125 µg/mL

## gentamicin
[4]; Acinetobacter baumannii ATCC 19606, 50% growth inhibition
  MIC (μg/ml) 50%: <1.0 µg/mL
[4]; Acinetobacter baumannii ATCC 19606, 80% growth inhibition
  MIC (μg/ml) 80%: <2.0 µg/mL
[5]
  MIC (μg/ml) 50%: <0.5 µg/mL
  MIC (μg/ml) 80%: <1.0 µg/mL
[6]; Escherichia coli DH5α, 50% growth inhibition, 4 hours
  MIC (μg/ml) 50%: <0.5 µg/mL
[6]; Escherichia coli DH5α, 80% growth inhibition, 4 hours
  MIC (μg/ml) 80%: <1.0 µg/mL
Escherichia coli K1; Escherichia coli K1, 50% growth inhibition
  MIC (μg/ml) 50%: <0.5 µg/mL
Escherichia coli K1; Escherichia coli K1, 80% growth inhibition
  MIC (μg/ml) 80%: <1.0 µg/mL
[7]; Salmonella enteritidis ATCC 13076, 50% growth inhibition
  MIC (μg/ml) 50%: <0.5 µg/mL
[7]; Salmonella enteritidis ATCC 13076, 80% growth inhibition
  MIC (μg/ml) 80%: <1.0 µg/mL
[8]
  MIC (μg/ml) 50%: <0.5 µg/mL
  MIC (μg/ml) 80%: <1.0 µg/mL
[9]; Salmonella typhimurium ATCC 53648, 50% growth inhibition
  MIC (μg/ml) 50%: <0.5 µg/mL
[9]; Salmonella typhimurium ATCC 53648, 80% growth inhibition
  MIC (μg/ml) 80%: <1.0 µg/mL

## klrvklrralr-NH2 [allD FP-13-9a-NH2]
[1]
  LPS binding affinity (in words): strong LPS binding affinity
  Kd: 9.54 µM

## colistin [reference compound]
[2]; CR-A. baumannii
  MIC50, Carbapenem resistant (CR)-Acinetobactor baumannii: <1 µg/mL
CR-Klebsiella pneumoniae; CR-K. pneumoniae
  MIC50, CR-Klebsiella pneumoniae: <125 µg/mL
ESBL (E. coli); ESBL E. coli
  MIC50, ESBL (E. coli): <0.5 µg/mL
[3]; [10]
  MIC50, Colistin resistant AB: No effect

## KLRVKLRRWLR [allD FP-13-9w-NH2]
[1]
  LPS binding affinity (in words): strong LPS binding affinity
  Kd: 17.4 µM

## KLGVEALRYLD [FP9]
[1]
  LPS binding affinity (in words): strong LPS binding affinity
  Kd: 326 µM

## CC1(C)S[C@@H]2[C@H](NC(=O)[C@H](N)c3ccccc3)C(=O)N2[C@H]1C(=O)O [Ampicillin, ampicillin]
[4]; [11]
  MIC: < 32 µg/mL
[4]; [12]
  MIC: < 64 µg/mL
[5]
  MIC (μg/ml) 50%: no effect
  MIC (μg/ml) 80%: no effect
[6]; read-out: MIC (μg/ml) 50%
  MIC: < 2 µg/mL
[6]; read-out: MIC (μg/ml) 80%
  MIC: < 4 µg/mL
Escherichia coli K1; K1, read-out: MIC (μg/ml) 50%
  MIC: < 4 µg/mL
Escherichia coli K1; K1, read-out: MIC (μg/ml) 80%
  MIC: < 8 µg/mL
[7]; read-out: MIC (μg/ml) 50%
  MIC: < 4 µg/mL
[7]; read-out: MIC (μg/ml) 80%
  MIC: < 8 µg/mL
[8]
  MIC (μg/ml) 50%: no effect
  MIC (μg/ml) 80%: no effect
[9]; read-out: MIC (μg/ml) 50%
  MIC: < 1 µg/mL
[9]; read-out: MIC (μg/ml) 80%
  MIC: < 2 µg/mL
[2]; read-out: MIC50, Carbapenem resistant (CR)-Acinetobactor baumannii
  MIC50: < 16 µg/mL
CR-Klebsiella pneumoniae; CR-K. pneumoniae
  MIC50, CR-Klebsiella pneumoniae: No effect
ESBL (E. coli); ESBL E. coli
  MIC50, ESBL (E. coli): No effect
[3]; [10]
  MIC50, Colistin resistant AB: No effect

## KLRVKLRRYLR [FP13]
[2]
  MIC50, Carbapenem resistant (CR)-Acinetobactor baumannii: <16 µg/mL
CR-Klebsiella pneumoniae; CR-
  MIC50, CR-Klebsiella pneumoniae: <62 µg/mL
ESBL (E. coli); ESBL
  MIC50, ESBL (E. coli): <2 µg/mL
[3]
  MIC50, Colistin resistant AB: <62 µg/mL

## KLGVEAKRYLD [FP1(WT), reference compound]
[1]
  Kd: 238 µM

## PEG-KLRVKLRRYLR-NH2 [PEG-alld FP13-NH2 (AcOH)]
[1]
  Kd: 17.5 µM

## KLGVEAKRYLR [FP3]
[1]
  LPS binding affinity (in words): strong LPS binding affinity
  Kd: 332 µM

## C[C@H]1COc2c(N3CCN(C)CC3)c(F)cc3c(=O)c(C(=O)O)cn1c23 [Levofloxacin, levofloxacin]
[4]; [11]
  MIC: < 0.5 µg/mL
[4]; [12]
  MIC: < 1 µg/mL
[5]; PAO1, read-out: MIC (μg/ml) 50%
  MIC: < 0.5 µg/mL
[5]; PAO1, read-out: MIC (μg/ml) 80%
  MIC: < 1 µg/mL
[6]; read-out: MIC (μg/ml) 50%
  MIC: < 0.5 µg/mL
[6]; read-out: MIC (μg/ml) 80%
  MIC: < 1 µg/mL
Escherichia coli K1; K1, read-out: MIC (μg/ml) 50%
  MIC: < 0.5 µg/mL
Escherichia coli K1; K1, read-out: MIC (μg/ml) 80%
  MIC: < 1 µg/mL
[7]; read-out: MIC (μg/ml) 50%
  MIC: < 0.5 µg/mL
[7]; read-out: MIC (μg/ml) 80%
  MIC: < 1 µg/mL
[8]; ATCC13883, read-out: MIC (μg/ml) 50%
  MIC: < 0.5 µg/mL
[8]; ATCC13883, read-out: MIC (μg/ml) 80%
  MIC: < 1 µg/mL
[9]; read-out: MIC (μg/ml) 50%
  MIC: < 0.5 µg/mL
[9]; read-out: MIC (μg/ml) 80%
  MIC: < 1 µg/mL

## CC(C)C[C@@H](NC(=O)[C@H](N)CCCNC(=N)N)C(=O)N[C@H](CCCNC(=N)N)C(=O)N[C@@H](C(=O)N[C@H](CCCCN)C(=O)N[C@H](CC(C)C)C(=O)N[C@H](CCCNC(=N)N)C(=O)N[C@H](CCCNC(=N)N)C(=O)N[C@H](Cc1c[nH]c2ccccc12)C(=O)N[C@H](CC(C)C)C(=O)N[C@H](CCCNC(=N)N)C(N)=O)C(C)C [allD FP21-NH2] (H-[dR][dL][dR][dV][dK][dL][dR][dR][dW][dL][dR]-NH2; N-terminus assumed)
[2]
  MIC50, Carbapenem resistant (CR)-Acinetobactor baumannii: <1 µg/mL
CR-Klebsiella pneumoniae; CR-
  MIC50, CR-Klebsiella pneumoniae: <4 µg/mL
ESBL (E. coli); ESBL
  MIC50, ESBL (E. coli): <0.5 µg/mL
[3]
  MIC50, Colistin resistant AB: <4 µg/mL

## klrvklrrklr-NH2 [allD FP-13-9k-NH2]
[1]
  LPS binding affinity (in words): strong LPS binding affinity
  Kd: 1.99 µM
